Measured values published in paper PMC12765074, “Mechanistic insights into enterocin C targeting the undecaprenyl phosphate recycling protein BacA” (The Journal of Biological Chemistry, 2025).

System: EntC1
Assay: ITC, EntC1
Format: binding
Conditions: titration of EntC2 with EntC1

**Q.** Which “binding to EntC1 (ITC)” value does the source give for `CC[C@H](C)[C@H](NC(=O)CNC(=O)[C@H](CCCCN)NC(=O)[C@H](C)NC(=O)[C@H](CC(C)C)NC(=O)CNC(=O)[C@H](C)NC(=O)[C@@H](NC(=O)[C@H](Cc1ccccc1)NC(=O)[C@H](CC(=O)O)NC(=O)[C@H](Cc1ccc(O)cc1)NC(=O)[C@H](C)NC(=O)[C@@H]1CCCN1C(=O)[C@H](CCC(N)=O)NC(=O)[C@H](CC(C)C)NC(=O)[C@H](Cc1c[nH]c2ccccc12)NC(=O)[C@@H]1CCCN1C(=O)[C@H](CC(C)C)NC(=O)[C@H](Cc1c[nH]c2ccccc12)NC(=O)[C@H](CCCCN)NC(=O)CNC(=O)[C@@H]1CCCN1C(=O)CN)C(C)C)C(=O)NCC(=O)N[C@@H](CCCCN)C(=O)N[C@@H](CCC(=O)O)C(=O)NCC(=O)N[C@@H](CC(N)=O)C(=O)N[C@@H](CCCCN)C(=O)N[C@@H](CC(N)=O)C(=O)N[C@@H](CCCCN)C(=O)N[C@@H](Cc1c[nH]c2ccccc12)C(=O)N[C@@H](CCCCN)C(=O)N[C@@H](CC(N)=O)C(=O)N[C@H](C(=O)O)C(C)C` (single isomer, unassigned) [EntC2] here?
**A.** The value was “No binding”.
